Reference: patent US20250073250A1, “Improved synthesis of lysine acetylsalicylate - Glycine particles” (AspiAir GmbH, priority 2022, published 2025)
Read-outs that look alike come from different tables or passages of the source.

Legend:
Type in all cases: physicochemical
[1] = Particle size distribution (PSD) by laser diffraction; conditions: for Dv10 / Dv50 / Dv90: volume-based
Experimental: Unless mentioned otherwise, the particle size values provided herein (either measured or calculated/derived from measured values) refer to particle diameters and were determined using a laser diffraction device, and its related evaluation software (here, for instance, a Mastersizer® device from Malvern Instruments Ltd.); all laser diffraction measurements complied with ISO-13320 standards. Where referring to the particle size measurements, all percentages provided herein (such as ‘at least 90% of the particles have a particle size of . . . ’) are to be understood as volume-percentages. […] Where available, three or more batches of the substances were tested, and mean values of their PSD-data obtained.

[2] = Manual dissolution of 1000 mg LASAG in 8 mL glass vial with 5 mL water for injection; conditions: 1000 mg in 5 mL water for injection, 8 mL vial
Excerpt: As mentioned above, by controlling the particle size of the LASAG, it is possible to control parameters such as the dissolution speed (also referred to as dissolution rate). […] Special precautionary measures” that the reconstituted solution should preferably be filtered with a 5 μm filter before its application, as such indicating potential issues with (quick) dissolution. Especially, when considering that LASAG is inter alia employed in the treatment of myocardial infarction, i.e., an acute health crisis where time is of critical importance, a faster, more readily occurring dissolution of the LASAG used, can represent a clinically relevant advantage.
An amount of 5 mL water for injection purposes was injected through the sealing stopper over the course of about 25-30 seconds, the needle then removed, and the vial shaken, or swirled, manually until complete dissolution (no residual solids visible to the human eye). The same test was performed with a commercially available Aspirin® i.v. vial. Each test was repeated at least 3 times per type of LASAG. This test and the resulting dissolution behaviour are considered similar to what is likely to be observed by, for instance, paramedics in an ambulance or medical staff in hospitals upon dissolving the dry LASAG particles in pre-filled vials by adding water for injection purposes and shaking manually. […]

[3] = Dissolution on horizontal shaker; conditions: 1000 mg in 5 mL water, 25 mL test tube, horizontal shaker 1055 rpm, 5 s intervals
Experimental: An amount of 5 mL water for injection purposes was added, and the vial shaken in intervals of 5 seconds at 1055 rpm until complete dissolution (no residual solids visible to the human eye). The same test was performed with a commercially available Aspirin® i.v. vial. Each test was repeated at least 3 times per type of LASAG.

[4] = Glass adhesion in 8 mL glass vial (gravimetric)
Experimental: After opening the vial and emptying out any non-adhered powder by simple gravitational spill, the vial with the adhered particles inside is weighed again, to thereby gravimetrically determine the weight of the adhered particles. Low glass adhesion facilitates handling of the vials (e.g., better visibility into the vial), and ensures that the complete intended dose is dissolved upon adding water to the vial (rather than, for instance, some material sticking to the upper end of the vial, near the stopper, where the water, that is added into the vial via injection through a needle, may not reach). […] On at least five consecutive days, the vial was manually moved, or rotated, once daily around all its axes to properly disperse the LASAG particles and allow them to coat the inner glass surface. After seven days, the vials were emptied by simply turning them upside down and allowing all non-adhering powder to spill out, or fall out, under gravity, followed by firmly tapping the vial five times onto a solid surface. No noteworthy adhesion to the stopper was observed. The weight of the remainder, i.e., the weight of the LASAG powder still sticking to the glass wall inside the vial after emptying, was determined gravimetrically. The same test was performed with a commercially available Aspirin® i.v. vial.

[5] = Stability in aqueous solution (salicylic acid content by HPLC)
Experimental: Due to its instability in water, LASAG is commonly used as a dry powder, and specifically as a dry powder for reconstitution; in other words, an aqueous solution thereof is not necessarily meant to be stored for extended periods of time but instead is prepared freshly prior to each use. Stability in aqueous solution is nonetheless an important feature for users, for instance, in order to know how long a prepared solution can still be used; a content of ≤1.5 wt.-% of the LASAG-degradant salicylic acid (SA) in a solution is typically considered acceptable. […] In between sample time points, the vials were kept closed.
The following time points were measured:
For the HPLC-analysis, an Agilent Zorbax SB-C18 column was used (4.6×250 mm, 5 μm) at 22° C. with isocratic elution over 40 minutes at an eluent flow rate of 1 mL/min. The eluent was an 80 mM ammonium acetate/acetonitrile solution (60:40) prepared by dissolving 4 g ammonium acetate in 600 mL HPLC-grade water, adjusting the pH to 2.0 using trifluoroacetic acid, then adding 400 mL acetonitrile and homogenising the mixture. The injected sample volume was 10 μL. A UV-detector was used at 237 nm to analyse the samples.

[6] = Storage stability in dry state in aluminium-lined polyethylene bags
Experimental: At 5±3° C. […] After continuation of the cold storage stability study for a further 12 months, this stability finding is reconfirmed, with the extrapolated value being increased to from 70.9±3.5 months to 200±5 months.

[7] = Specific surface area by BET gas adsorption
Excerpt: Without wishing to be bound by theory, it seems possible that not only the smaller median particle size of the LASAG according to the present invention is responsible for its faster dissolution but also its higher specific surface area.

[8] = listed as LASAG 2 (batch in clinical study)

With `CC(=O)Oc1ccccc1C(=O)O.NCC(=O)O.NCCCCC(N)C(=O)O` (racemic) [LASAG 2, lysine acetylsalicylate⋅glycine] the “1st max. of particle size distribution” value [1] was 20.4 μm, the “1st max. of particle size distribution” value [1, 8] was 18.7 μm and the Dv10 [1] was 4.2 μm. The Dv50 [1] was 18.4 μm, the Dv90 [1] was 53.3 μm and the Dv10 [1, 8] was 3.8 μm. The Dv50 [1, 8] was 16.3 μm, the Dv90 [1, 8] was 40.4 μm and the Dv90 ([1]; listed as LASAG of the present invention) was “about 50 μm”. The “shaking/swirling motions until complete dissolution” value ([2]; manual) was 3-5, the “time from removing the needle until complete dissolution” value ([2]; manual shaking/swirling) was 15 to 30 s and the “time until complete dissolution” value [3] was 18.3 ± 2.9 s. For the same compound, the “weight remaining in the vial (adhering to glass)” value ([4]; 1000 mg in 8 mL vial, after seven days, emptied and tapped) was 5.12 ± 0.35 mg, the “glass adhesion per inner glass surface” value ([4]; inner glass surface approx. 29 cm^2) was “about 0.177 mg/cm^2” and the “time at which solution exceeds 1.5 wt.-% salicylic acid content” value ([5]; 1.0 g in 5.0 mL water, room temperature (20±5° C.)) was “about 1 h”. For the same compound, the “changes in colour or clarity of solution” value ([5]; over time range and storage conditions tested) was “None”, the “Time until reaching salicylic acid threshold of 1.5%” value ([6]; 5±3° C., extrapolated after continuation of study for a further 12 months) was 200±5 months and the “Time until reaching salicylic acid threshold of 1.5%” value ([6]; 5 ± 3° C., n = 3, extrapolated, listed as LASAG according to present invention) was 70.9 ± 3.5 months. The “Time until reaching salicylic acid threshold of 1.5%” value ([6]; 25 ± 2° C. 60 ± 5% r.h., n = 3) was 10.3 ± 2.0 months, the “Time until reaching salicylic acid threshold of 1.5%” value ([6]; 30 ± 2° C. 65 ± 5% r.h., n = 3) was 3.5 ± 1.2 months and the “Time until reaching salicylic acid threshold of 1.5%” value ([6]; 40 ± 2° C. 75 ± 5% r.h., n = 3) was 0.2 ± 0.0 months. It also gave a specific surface area [7] of 2.4±0.1 m^2/g.
